In the NIST ThermoML archive (doi:10.1021/je300345m):

Experiment: xn = mol fraction of the nth substance listed
Details: Liquid, Vibrating tube method

CN(CCO)CCO [N-methyldiethanolamine] + O
mass density [kg/m3]
Details	x1 = 0.0609	x1 = 0.0916	x1 = 0.1313	x1 = 0.1848	x1 = 0.2608	x1 = 0.3768	x1 = 0.5764	x1 = 1
348.15 K, 100 kPa	995.9	1003	1008.5	1011.9	1014.2	1012.6	1006.9	997.7
353.15 K, 100 kPa	992.3	999.2	1004.6	1007.7	1009.9	1008.4	1002.7	993.8
358.15 K, 100 kPa	988.7	995.3	1000.4	1003.5	1005.2	1004.1	998.6	989.9
363.15 K, 100 kPa	984.9	991.3	996.3	999.2	1000.9	999.8	994.4	985.9
373.15 K, 700 kPa	977.2	982.9	987.6	990.7	992	990.6	985.7	978.6
383.15 K, 700 kPa	968.8	974.1	978.5	981.4	982.6	981.4	976.9	970.3
393.15 K, 700 kPa	960.2	965.2	969.3	972.1	973.3	972.2	968.1	962.1
403.15 K, 700 kPa	951.2	955.9	959.8	962.5	963.7	962.9	959.3	953.9
413.15 K, 700 kPa	941.9	946.4	950.1	952.7	954	953.4	950.4	945.6
423.15 K, 700 kPa	931.9	936.1	939.6	942.3	943.6	943.4	940.9	937
